Results on eight compounds are retold here after patent US8551959B2, “Glycolipid and use thereof” (RIKEN, priority 2008, dated 2013).

One experiment relates to IL-4. In words: IL-4 content in serum (Cytometric bead array) after tail vein administration of synthetic glycolipid to mice. Format: in vivo, C57BL/6 mice. The note with it: Experimental Example 3; 2, 0.2 or 0.02 μg/mouse; 3 and 6 hr; FIG. 7. As to the method: (§1) DMSO solutions (1 mg/mL concentration) of α-GalCer, carba-glycolipid A, compound 2-9, compound 3-4, compound 3-7 and compound 3-10 were prepared. The above-mentioned DMSO solutions were diluted with saline (manufactured by Otsuka Pharmaceutical Co., Ltd.) containing 0.5% Tween 20 (Bio-Rad) such that the dose would be 100 μg/kg body weight when 200 μL is administered to one mouse from the tail vein. […]
The content of IL-4 in the serum after lapse of 3, 6 and 12 hr from the administration was measured by Cytometric bead array system (BD Biosciences), which is one kind of the ELISA method. […]
By a method similar to Experimental Example 1, the content of IL-4 in the serum after lapse of 3 and 6 hr from the administration of α-GalCer, compound 2-9, compound 3-4, compound 3-7, compound 3-10, compound 3-13 and compound 3-16 was measured. […]
By a method similar to Experimental Example 1 except that the dose of α-GalCer and compound 2-9 was 2 μg/mouse, 0.2 μg/mouse or 0.02 μg/mouse, the content of IL-4 in the serum after lapse of 3 and 6 hr from the administration of α-GalCer and compound 2-9 was measured. […]

The next experiment concerns IL-12. In words: IL-12 content in serum (Cytometric bead array) after tail vein administration of synthetic glycolipid to mice. Format: in vivo, C57BL/6 mice. The note with it: Experimental Example 3; 2, 0.2 or 0.02 μg/mouse; 3 and 6 hr; FIG. 9. As to the method:
as §1
The content of IL-12 in the serum after lapse of 3, 6 and 12 hr from the administration was measured by Cytometric bead array system (BD Biosciences), which is one kind of the ELISA method. […]
By a method similar to Experimental Example 1, the content of IL-12(p70) in the serum after lapse of 3 and 6 hr from the administration of α-GalCer, compound 2-9, compound 3-4, compound 3-7, compound 3-10, compound 3-13 and compound 3-16 was measured. […]
By a method similar to Experimental Example 1 except that the dose of α-GalCer and compound 2-9 was 2 μg/mouse, 0.2 μg/mouse or 0.02 μg/mouse, the content of IL-12(p70) in the serum after lapse of 3 and 6 hr from the administration of α-GalCer and compound 2-9 was measured. […]

Another experiment concerns IFN-γ. In words: IFN-γ content in serum (sandwich ELISA) after tail vein administration of synthetic glycolipid to mice. It is filed as in vivo, C57BL/6 mice. The conditions noted are these: for IFN-γ production level in serum compared with α-GalCer and carba-glycolipid A: 100 μg/kg body weight, FIG. 1; for IFN-γ production level in serum compared with α-GalCer and carba-glycolipid A / IFN-γ production level in serum compared with α-GalCer: 6-60 hr. Here is the method:
DMSO solutions (1 mg/mL concentration) of α-GalCer, carba-glycolipid A, compound 2-9, compound 3-4, compound 3-7 and compound 3-10 were prepared. The above-mentioned DMSO solutions were diluted with saline (manufactured by Otsuka Pharmaceutical Co., Ltd.) containing 0.5% Tween 20 (Bio-Rad) such that the dose would be 100 μg/kg body weight when 200 μL is administered to one mouse from the tail vein.
Each of the prepared solutions (200 μL) of carba-glycolipid A, compound 2-9, compound 3-4, compound 3-7 and compound 3-10 was injected to C57BL/6 mice (5 per group) from the tail vein. α-GalCer was used as a control substance, and 200 μL of α-GalCer solution prepared to a dose of 100 μg/kg body weight according to a similar method was injected from the tail vein. A group administered with a medium (200 μL of saline containing 0.5% Tween 20) was taken as a negative control. The blood (80 μL) was taken from the orbital plexus venosus 6, 12, 24, 36, 48 and 60 hr after administration, and the serum was prepared.
The content of IFN-γ in the serum after lapse of 6, 12, 24, 36, 48 and 60 hr from the administration was measured by sandwich ELISA (ENDOGEN). The measurement results (average value) of the IFN-γ production level and the standard deviation (STDEV) thereof are shown in FIG. 1.
By a method similar to Experimental Example 1, the content of IFN-γ in the serum after lapse of 6, 12, 24, 36, 48 and 60 hr from the administration of α-GalCer, compound 2-9, compound 3-4, compound 3-7, compound 3-10, compound 3-13 and compound 3-16 was measured. The measurement results (average value) of the IFN-γ production level and the standard deviation (STDEV) thereof are shown in FIG. 4.
By a method similar to Experimental Example 1 except that the dose of α-GalCer was 2 μg/mouse and the dose of compound 2-9 was 2 μg/mouse, 0.2 μg/mouse, 0.02 μg/mouse, 0.002 μg/mouse or 0.0002 μg/mouse, the content of IFN-γ in the serum after lapse of 6, 12, 24, 36, 48 and 60 hr from the administration of α-GalCer and compound 2-9 was measured. The measurement results (average value) of the IFN-γ production level and the standard deviation (STDEV) thereof are shown in FIG. 5.
Background: An ELISA detects its analyte on a solid surface through an enzyme-linked reagent.

For experiment [1] the following is noted: non-patent document 7; cited from earlier work.
The test system of another experiment is human NKT cells. The conditions noted are these: cited from earlier work.
For the next experiment, the system named is NKT cells. The note with it: non-patent document 10; cited from earlier work.
Where [2] appears, read: Experimental Example 1, tail vein.
[3] abbreviates: Experimental Example 1, conclusion from IFN-γ, IL-4 and IL-12 levels.
The mark [4] stands for this setting: Experimental Example 2, conclusion from IFN-γ, IL-4 and IL-12 levels.
The mark [5] stands for this setting: Experimental Example 2, tail vein, FIG. 4.

“Also recorded” adds a separate entry of the source.

As for `CCCCCCCCCCCCCCCCCCCCCCCCCC(=O)N[C@@H](CO[C@H]1OC(COC)[C@H](O)[C@H](O)C1O)[C@H](O)[C@H](O)CCCCCCCCCCCCCC` (stereo partly shown) [compound 2-9], in the experiment with IL-4, the “IL-4 production level in serum” value is “decreased as the dose of compound 2-9 was reduced”. Also, the “IL-12(p70) production level in serum as compared with α-GalCer” value in the experiment with IL-12 was “up to 4 fold”. For the same compound, the “IFN-γ production level in serum compared with α-GalCer and carba-glycolipid A” value in the experiment with IFN-γ (setting [2]) was “larger amount of IFN-γ than α-GalCer and carba-glycolipid A; also recorded: most strongly”. The “Selective induction of IFN-γ production compared to α-GalCer and carba-glycolipid A” value in the experiment with IFN-γ (setting [3]) is “selectively induced production of IFN-γ in larger amounts”. The “Selective induction of IFN-γ production compared to α-GalCer” value with IFN-γ (setting [4]) is given as “selectively induced production of IFN-γ in larger amounts”; with IFN-γ (Experimental Example 3, lower doses of compound 2-9), “selectively induced production of IFN-γ in larger amounts”. Further, the “IFN-γ production level in serum compared with α-GalCer” value is given as “larger amount of IFN-γ than α-GalCer; also recorded: most strongly” with IFN-γ (setting [5]) and “larger amount of IFN-γ than α-GalCer even by administration at a lower concentration” in the experiment with IFN-γ (Experimental Example 3, compound 2-9 at 2 to 0.0002 μg/mouse, α-GalCer 2 μg/mouse, FIG. 5).

With `CCCCCCCCCCCCCCCCCCCCCCCCCC(=O)N[C@@H](COC1OC(CO)C(O)C(O)C1O)[C@H](O)[C@H](O)CCCCCCCCCCCCCC` (stereo partly drawn) [α-GalCer, reference compound], in experiment [1], the “Immunostimulatory activity in a series of synthesis analogs” value was “shows the strongest activity”. Also, in the experiment with IFN-γ (Experimental Example 1), the IFN-γ/IL-4 ratio was determined as 2.

`CCCCCCCCCCCCCCCCCCCCCCCCCC(=O)N[C@@H](CO[C@H]1OC(C)[C@H](O)[C@H](O)C1O)[C@H](O)[C@H](O)CCCCCCCCCCCCCC` (stereo partly shown) [compound 3-10]: the “IFN-γ production level in serum compared with α-GalCer and carba-glycolipid A” value with IFN-γ (setting [2]) was “larger amount of IFN-γ than α-GalCer and carba-glycolipid A”. Besides, in the experiment with IFN-γ (setting [3]), the “Selective induction of IFN-γ production compared to α-GalCer and carba-glycolipid A” value is “selectively induced production of IFN-γ in larger amounts”. Besides, the “Selective induction of IFN-γ production compared to α-GalCer” value in the experiment with IFN-γ (setting [4]) was “selectively induced production of IFN-γ in larger amounts”. Moreover, the “IFN-γ production level in serum compared with α-GalCer” value in the experiment on IFN-γ (setting [5]) is given as “larger amount of IFN-γ than α-GalCer”.

In the case of `CCCCCCCCCCCCCCCCCCCCCCCCCC(=O)N[C@@H](CO[C@H]1OC(CC)[C@H](O)[C@H](O)C1O)[C@H](O)[C@H](O)CCCCCCCCCCCCCC` (stereo partly shown) [compound 3-4], the “IFN-γ production level in serum compared with α-GalCer and carba-glycolipid A” value in the experiment on IFN-γ (setting [2]) was “larger amount of IFN-γ than α-GalCer and carba-glycolipid A”. In addition, in the experiment with IFN-γ (setting [3]), the “Selective induction of IFN-γ production compared to α-GalCer and carba-glycolipid A” value is “selectively induced production of IFN-γ in larger amounts”. For the same compound, in the experiment with IFN-γ (setting [4]), the “Selective induction of IFN-γ production compared to α-GalCer” value is given as “selectively induced production of IFN-γ in larger amounts”. In the experiment on IFN-γ (setting [5]), the “IFN-γ production level in serum compared with α-GalCer” value was “larger amount of IFN-γ than α-GalCer”.

With `CCCCCCCCCCCCCCCCCCCCCCCCCC(=O)N[C@@H](CO[C@H]1OC(CF)[C@H](O)[C@H](O)C1O)[C@H](O)[C@H](O)CCCCCCCCCCCCCC` (stereo partly shown) [compound 3-7], the “IFN-γ production level in serum compared with α-GalCer and carba-glycolipid A” value in the experiment with IFN-γ (setting [2]) was “larger amount of IFN-γ than α-GalCer and carba-glycolipid A”. Further, the “Selective induction of IFN-γ production compared to α-GalCer and carba-glycolipid A” value with IFN-γ (setting [3]) was “selectively induced production of IFN-γ in larger amounts”. Besides, in the experiment with IFN-γ (setting [4]), the “Selective induction of IFN-γ production compared to α-GalCer” value was “selectively induced production of IFN-γ in larger amounts”. The “IFN-γ production level in serum compared with α-GalCer” value with IFN-γ (setting [5]) is on record as “larger amount of IFN-γ than α-GalCer”.

As to `CCCCCCCCCCCCCCCCCCCCCCCCCC(=O)N[C@@H](CO[C@H]1OC(COCCC)[C@H](O)[C@H](O)C1O)[C@H](O)[C@H](O)CCCCCCCCCCCCCC` (stereo partly shown) [compound 3-16], the “Selective induction of IFN-γ production compared to α-GalCer” value in the experiment with IFN-γ (setting [4]) was “selectively induced production of IFN-γ in larger amounts”. In the experiment on IFN-γ (setting [5]), the “IFN-γ production level in serum compared with α-GalCer” value is recorded as “larger amount of IFN-γ than α-GalCer”.

Take `CCCCCCCCCCCCCCCCCCCCCCCCCC(=O)N[C@@H](CO[C@H]1OC(COCC)[C@H](O)[C@H](O)C1O)[C@H](O)[C@H](O)CCCCCCCCCCCCCC` (stereo partly shown) [compound 3-13]: in the experiment on IFN-γ (setting [4]), the “Selective induction of IFN-γ production compared to α-GalCer” value is “selectively induced production of IFN-γ in larger amounts”. Besides, the “IFN-γ production level in serum compared with α-GalCer” value in the experiment with IFN-γ (setting [5]) is recorded as “larger amount of IFN-γ than α-GalCer”.

`CCCCCCCCCCCCCCCCCCCCCCCCCC(=O)N[C@@H](CO[C@H]1CC(CO)[C@H](O)C(O)C1O)[C@H](O)[C@H](O)CCCCCCCCCCCCCC` (stereo partly shown) [carba-glycolipid A]: the “Activity on human NKT cells in vitro” value in the experiment on human NKT cells is on record as “strong activity”. In the experiment on NKT cells, the “Induction of IFN-γ production by NKT cells” value is “strongly induces IFN-γ production”.
